According to publication PMC10681007, “Targeted Degradation of XIAP is Sufficient and Specific to Induce Apoptosis in MYCN-overexpressing High-risk Neuroblastoma” (Cancer Research Communications, 2023):
Each block holds one compound with its values, some of them ahead of it.

Experiments:
Type in all cases: cell-based, Human
HS5 (bone marrow origin) = assay: RealTime-Glo MT cell viability assay, noncancerous normal cells; conditions: Homo sapiens
Experimental: (§1) Cell viability was measured in real time using RealTime-Glo MT Cell Viability Assay as according to manufacturer's instructions from Promega. Cells were seeded at 1 × 10^4 cells per well and treated with a range of doses of indicated antagonists, followed by continuous bioluminescence reading every 24 hours for 3 days using luminescent plate reader, Varioskan (SkanIT software). IC50 was determined using GraphPad Prism software.
(§2) To determine their efficacy in neuroblastoma, a panel of neuroblastoma cell lines including neuroblastoma patient-derived cell lines and noncancerous normal tissue-derived cell lines were treated with increasing doses of each antagonist (0–100 µmol/L), followed by real-time measurement of cell viability every 24 for 72 hours.
(§3) To evaluate this, noncancerous normal tissue-derived cell lines THLE3 and HS5 were utilized to evaluate toxicity and tolerability.

THLE3 (liver origin) = assay: as above; conditions: Homo sapiens
Experimental: as §1, §2, §3

[1] = test system: neuroblastoma cells across the panel of cell lines; assay: Cell viability, IC50 range across the panel; conditions: Homo sapiens, Neuroblastoma cell; range over cell lines, doses 0–100 µmol/L, viability every 24 for 72 hours; read-out: IC50 against neuroblastoma cells across the panel of cell lines
Experimental: as §1, with “([…]” for “(SkanIT”, “software. To determine their efficacy in neuroblastoma, a panel of neuroblastoma cell lines including neuroblastoma patient-derived cell lines and noncancerous normal tissue-derived cell lines were treated with increasing doses of each antagonist (0-100 μmol/L), followed by real-time measurement of cell viability every 24 for 72 hours. […] Supplementary Table S2; Fig. 2A). […] Fig. 2A).” for “software.”

THLE3 and HS5 = assay: Toxicity and tolerability in noncancerous normal tissue-derived cell lines; conditions: THLE3 and HS5 versus neuroblastoma cells
Experimental: as §1
To evaluate this, noncancerous normal tissue-derived cell lines THLE3 and HS5 were utilized to evaluate toxicity and tolerability. […] On the basis of their overall potency and specificity toward neuroblastoma cells over noncancerous normal cells, A4, B3, and BV6 were selected as the more efficacious antagonists to be studied further in subsequent experiments (Fig. 2A).

NLF = assay: RealTime-Glo MT cell viability assay; conditions: Homo sapiens
Experimental: as §1, §2

[2] = test system: NBL16-0118 patient-derived neuroblastoma cells; assay: RealTime-Glo MT cell viability assay; conditions: Homo sapiens, Neuroblastoma cell
Experimental: as §1, §2

[3] = test system: NBL01-1116 patient-derived neuroblastoma cells; assay: RealTime-Glo MT cell viability assay; conditions: Homo sapiens, Neuroblastoma cell
Experimental: as §1, §2

SK-N-AS = assay: RealTime-Glo MT cell viability assay; conditions: Homo sapiens
Experimental: as §1, §2

BE(2)-C = assay: RealTime-Glo MT cell viability assay; conditions: Homo sapiens
Experimental: as §1, §2

SK-N-SH = assay: RealTime-Glo MT cell viability assay; conditions: Homo sapiens
Experimental: as §1, §2

CHP212 = assay: RealTime-Glo MT cell viability assay; conditions: Homo sapiens, CHP-212
Experimental: as §1, §2

[4] = test system: NBL27-0218A patient-derived neuroblastoma cells; assay: RealTime-Glo MT cell viability assay; conditions: Homo sapiens, Neuroblastoma cell
Experimental: as §1, §2

KELLY = assay: RealTime-Glo MT cell viability assay; conditions: Homo sapiens
Experimental: as §1, §2

NB1 = assay: RealTime-Glo MT cell viability assay; conditions: Homo sapiens
Experimental: as §1, §2

[5] = test system: NBL-07-0317 patient-derived neuroblastoma cells; assay: RealTime-Glo MT cell viability assay; conditions: Homo sapiens, Neuroblastoma cell
Experimental: as §1, §2

IMR-32 = assay: RealTime-Glo MT cell viability assay; conditions: Homo sapiens
Experimental: as §1, §2

IC50 [1]: 20 to 60 µM
IC50 ([2]; NBL16-0118, 24 hours): 35 µM
IC50 ([2]; NBL16-0118, 48 hours): 32 µM
IC50 ([2]; NBL16-0118, 72 hours): 30 µM
IC50 ([3]; NBL01-1116, 24 hours): 40 µM
IC50 ([3]; NBL01-1116, 48 hours): 38 µM
IC50 ([3]; NBL01-1116, 72 hours): 38 µM
IC50 (SK-N-AS; 24 hours): 33.2 µM
IC50 (SK-N-AS; 48 hours): 26.9 µM
IC50 (SK-N-AS; 72 hours): 22.3 µM
IC50 (SK-N-SH; 24 hours): 54.1 µM
IC50 (SK-N-SH; 48 hours): 40 µM
IC50 (SK-N-SH; 72 hours): 33.5 µM
IC50 ([4]; 24 hours): 32.8 µM
IC50 ([4]; 48 hours): 30.4 µM
IC50 ([4]; 72 hours): 28.4 µM
IC50 ([5]; NBL-07-0317, 24 hours): 33.5 µM
IC50 ([5]; NBL-07-0317, 48 hours): 33 µM
IC50 ([5]; NBL-07-0317, 72 hours): 32 µM
Structure (SMILES): CN[C@@H](C)C(=O)N[C@H](C(=O)N1CCC[C@H]1C(=O)Nc1sc(-c2ncco2)nc1-c1ccccc1)C1CCCCC1 [CUDC-427]
IC50 (HS5 (bone marrow origin); HS5, 24 hours): 29.9 µM
IC50 (HS5 (bone marrow origin); HS5, 48 hours): 26.5 µM
IC50 (HS5 (bone marrow origin); HS5, 72 hours): 23.8 µM
IC50 (THLE3 (liver origin); THLE3, 24 hours): 40.2 µM
IC50 (THLE3 (liver origin); THLE3, 48 hours): 28.8 µM
IC50 (THLE3 (liver origin); THLE3, 72 hours): 29.5 µM
toxicity to noncancerous cells (THLE3 and HS5): more toxic toward noncancerous cells than neuroblastoma cells
IC50 (NLF; 24 hours): 45 µM
IC50 (NLF; 48 hours): 38.6 µM
IC50 (NLF; 72 hours): 30.2 µM
IC50 (BE(2)-C; 24 hours): 64.9 µM
IC50 (BE(2)-C; 48 hours): 60.9 µM
IC50 (BE(2)-C; 72 hours): 55.6 µM
IC50 (CHP212; CHP212, 24 hours): 57.6 µM
IC50 (CHP212; CHP212, 48 hours): 50.1 µM
IC50 (CHP212; CHP212, 72 hours): 50 µM
IC50 (KELLY; 24 hours): 32.5 µM
IC50 (KELLY; 48 hours): 29.5 µM
IC50 (KELLY; 72 hours): 26 µM
IC50 (NB1; NB1, 24 hours): 42 µM
IC50 (NB1; NB1, 48 hours): 38.1 µM
IC50 (NB1; NB1, 72 hours): 36.9 µM
IC50 (IMR-32; IMR-32, 24 hours): 59 µM
IC50 (IMR-32; IMR-32, 48 hours): 46.5 µM
IC50 (IMR-32; IMR-32, 72 hours): 40.6 µM

IC50 ([2]; NBL16-0118, 24 hours): > 100 µM
IC50 ([2]; NBL16-0118, 48 hours): > 100 µM
IC50 ([2]; NBL16-0118, 72 hours): > 100 µM
IC50 ([3]; NBL01-1116, 24 hours): > 100 µM
IC50 ([3]; NBL01-1116, 48 hours): > 100 µM
IC50 ([3]; NBL01-1116, 72 hours): > 100 µM
IC50 (SK-N-AS; 24 hours): 68.5 µM
IC50 (SK-N-AS; 48 hours): 50.5 µM
IC50 (SK-N-AS; 72 hours): 85 µM
IC50 (SK-N-SH; 24 hours): > 100 µM
IC50 (SK-N-SH; 48 hours): > 100 µM
IC50 (SK-N-SH; 72 hours): 35.5 µM
IC50 ([4]; 24 hours): > 100 µM
IC50 ([4]; 48 hours): > 100 µM
IC50 ([4]; 72 hours): 50 µM
IC50 ([5]; NBL-07-0317, 24 hours): > 100 µM
IC50 ([5]; NBL-07-0317, 48 hours): 93 µM
IC50 ([5]; NBL-07-0317, 72 hours): > 100 µM
Structure (SMILES): CN[C@@H](C)C(=O)N[C@H]1CN(C(=O)CC(C)C)CC[C@H]2CC[C@@H](C(=O)NC(c3ccccc3)c3ccccc3)N2C1=O [Debio 1143]
IC50 (HS5 (bone marrow origin); HS5, 24 hours): > 100 µM
IC50 (HS5 (bone marrow origin); HS5, 48 hours): 90 µM
IC50 (HS5 (bone marrow origin); HS5, 72 hours): > 100 µM
IC50 (THLE3 (liver origin); THLE3, 24 hours): > 100 µM
IC50 (THLE3 (liver origin); THLE3, 48 hours): 73 µM
IC50 (THLE3 (liver origin); THLE3, 72 hours): 80 µM
toxicity to noncancerous cells (THLE3 and HS5): more toxic toward noncancerous cells than neuroblastoma cells
IC50 (NLF; 24 hours): > 100 µM
IC50 (NLF; 48 hours): 78.5 µM
IC50 (NLF; 72 hours): > 100 µM
IC50 (BE(2)-C; 24 hours): > 100 µM
IC50 (BE(2)-C; 48 hours): > 100 µM
IC50 (BE(2)-C; 72 hours): > 100 µM
IC50 (CHP212; CHP212, 24 hours): > 100 µM
IC50 (CHP212; CHP212, 48 hours): > 100 µM
IC50 (CHP212; CHP212, 72 hours): > 100 µM
IC50 (KELLY; 24 hours): 91 µM
IC50 (KELLY; 48 hours): 73.5 µM
IC50 (KELLY; 72 hours): > 100 µM
IC50 (NB1; NB1, 24 hours): > 100 µM
IC50 (NB1; NB1, 48 hours): > 100 µM
IC50 (NB1; NB1, 72 hours): 64.5 µM
IC50 (IMR-32; IMR-32, 24 hours): > 100 µM
IC50 (IMR-32; IMR-32, 48 hours): > 100 µM
IC50 (IMR-32; IMR-32, 72 hours): 64.5 µM
